Laboratory results published in ChEMBL document CHEMBL1139614, “Synthesis and antibacterial activity of novel (un)substituted benzotriazolyl oxazolidinone derivatives” (2005).
≈ marks a conversion by molar mass, not a printed value. Calls of active or inactive are those of the source. The rule behind the calls is not given here.

Legend:
Escherichia coli [1] = test: In vitro minimum inhibitory concentration against Escherichia coli (ATCC 25922); format: functional
Pseudomonas aeruginosa [2] = test: In vitro minimum inhibitory concentration against Pseudomonas aeruginosa (ATCC 27853); format: functional
Enterococcus faecalis [3] = test: In vitro minimum inhibitory concentration against Enterococcus faecalis (ATCC 29212 and 21777); format: functional
[4] = tested on: Staphylococcus epidermidis; test: In vitro minimum inhibitory concentration against methicillin-resistant Staphylococcus epidermidis (ATCC 23760); format: functional
Bacillus pumilus [5] = test: In vitro minimum inhibitory concentration against Bacillus pumilus (ATCC 14884); format: functional
Staphylococcus aureus [6] = test: In vitro minimum inhibitory concentration against Staphylococcus aureus (ATCC 25923 and 29213); format: functional
Enterococcus faecalis [7] = test: In vitro minimum inhibitory concentration against Enterococcus faecalis [(VRE) ATCC 346-VRE and 5B-VRE]; format: functional
[8] = tested on: Salmonella enterica subsp. enterica serovar Abony; test: In vitro minimum inhibitory concentration against Salmonella abony (NCTC 6017); format: functional
[9] = tested on: Staphylococcus epidermidis; test: In vitro minimum inhibitory concentration against Staphylococcus epidermidis (ATCC 12228); format: functional
Staphylococcus aureus [10] = test: In vitro minimum inhibitory concentration against methicillin-resistant Staphylococcus aureus (ST450, ATCC 15187, ICH 1 and 37); format: functional
Enterococcus faecium [11] = test: In vitro minimum inhibitory concentration against Enterococcus faecium (6A-VRE); format: functional
[12] = tested on: Staphylococcus saprophyticus; test: In vitro minimum inhibitory concentration against Staphylococcus saprophyticus (ATCC 15305); format: functional
Enterococcus faecalis [13] = test: In vitro minimum inhibitory concentration against Enterococcus faecalis [(VRE) ATCC 346-VRE and 5B-VRE]; NA= Not active in preliminary screening up to 50 ug/mL; format: functional, organism-based
[14] = tested on: Staphylococcus epidermidis; test: In vitro minimum inhibitory concentration against Staphylococcus epidermidis (ATCC 12228); NA= Not active in preliminary screening up to 50 ug/mL; format: functional, organism-based
[15] = tested on: Salmonella enterica subsp. enterica serovar Abony; test: In vitro minimum inhibitory concentration against Salmonella abony (NCTC 6017); NA= Not active in preliminary screening up to 50 ug/mL; format: functional, organism-based
Enterococcus faecium [16] = test: In vitro minimum inhibitory concentration against Enterococcus faecium (6A-VRE); NA= Not active in preliminary screening up to 50 ug/mL; format: functional, organism-based
[17] = tested on: Staphylococcus epidermidis; test: In vitro minimum inhibitory concentration against methicillin-resistant Staphylococcus epidermidis (ATCC 23760); NA= Not active in preliminary screening up to 50 ug/mL; format: functional, organism-based
Staphylococcus aureus [18] = test: In vitro minimum inhibitory concentration against methicillin-resistant Staphylococcus aureus (ST450, ATCC 15187, ICH 1 and 37); NA= Not active in preliminary screening up to 50 ug/mL; format: functional, organism-based
Staphylococcus aureus [19] = test: In vitro minimum inhibitory concentration against Staphylococcus aureus (ATCC 25923 and 29213); NA= Not active in preliminary screening up to 50 ug/mL; format: functional, organism-based
Bacillus pumilus [20] = test: In vitro minimum inhibitory concentration against Bacillus pumilus (ATCC 14884); NA= Not active in preliminary screening up to 50 ug/mL; format: functional, organism-based
[21] = tested on: Staphylococcus saprophyticus; test: In vitro minimum inhibitory concentration against Staphylococcus saprophyticus (ATCC 15305); NA= Not active in preliminary screening up to 50 ug/mL; format: functional, organism-based
Enterococcus faecalis [22] = test: In vitro minimum inhibitory concentration against Enterococcus faecalis (ATCC 29212 and 21777); NA= Not active in preliminary screening up to 50 ug/mL; format: functional, organism-based
Pseudomonas aeruginosa [23] = test: In vitro minimum inhibitory concentration against Pseudomonas aeruginosa (ATCC 27853); NA= Not active in preliminary screening up to 50 ug/mL; format: functional, organism-based
Escherichia coli [24] = test: In vitro minimum inhibitory concentration against Escherichia coli (ATCC 25922); NA= Not active in preliminary screening up to 50 ug/mL; format: functional, organism-based
Staphylococcus aureus [25] = test: In vitro minimum inhibitory concentration against methicillin-resistant Staphylococcus aureus (ST450, ATCC 15187, ICH 1 and 37); Range= 0.125-0.25 ug/mL; format: functional
[26] = tested on: Staphylococcus epidermidis; test: In vitro minimum inhibitory concentration against Staphylococcus epidermidis (ATCC 12228); Range= 0.125-0.25 ug/mL; format: functional
Enterococcus faecalis [27] = test: In vitro minimum inhibitory concentration against Enterococcus faecalis [(VRE) ATCC 346-VRE and 5B-VRE]; Range= 0.125-0.25 ug/mL; format: functional
Staphylococcus aureus [28] = test: In vitro minimum inhibitory concentration against Staphylococcus aureus (ATCC 25923 and 29213); Range 2-4 ug/mL; format: functional

## CO/C(S)=N/C[C@H]1CN(c2ccc(-n3nnc4ccccc43)c(F)c2)C(=O)O1
Escherichia coli [1]
  MIC: > 16 µg/mL
Pseudomonas aeruginosa [2]
  MIC: > 16 µg/mL
Enterococcus faecalis [3]
  MIC: 1 µg/mL (≈ 2.49 µM)
[4]
  MIC: 0.25 µg/mL (≈ 0.623 µM)
Bacillus pumilus [5]
  MIC: > 16 µg/mL
Staphylococcus aureus [6]
  MIC: 1 µg/mL (≈ 2.49 µM)
Enterococcus faecalis [7]
  MIC: 1 µg/mL (≈ 2.49 µM)
[8]
  MIC: > 16 µg/mL
[9]
  MIC: 0.25 µg/mL (≈ 0.623 µM)
Staphylococcus aureus [10]
  MIC: 1 µg/mL (≈ 2.49 µM)
Enterococcus faecium [11]
  MIC: 1 µg/mL (≈ 2.49 µM)

## CCN(CC)CC/N=C(\S)NC[C@H]1CN(c2ccc(-n3nnc4ccccc43)c(F)c2)C(=O)O1
Escherichia coli [1]
  MIC: > 16 µg/mL
Pseudomonas aeruginosa [2]
  MIC: > 16 µg/mL
Enterococcus faecalis [3]
  MIC: > 16 µg/mL
[4]
  MIC: > 16 µg/mL
Bacillus pumilus [5]
  MIC: > 16 µg/mL
Staphylococcus aureus [6]
  MIC: > 16 µg/mL
Enterococcus faecalis [7]
  MIC: > 16 µg/mL
[8]
  MIC: > 16 µg/mL
[9]
  MIC: > 16 µg/mL
Staphylococcus aureus [10]
  MIC: > 16 µg/mL
Enterococcus faecium [11]
  MIC: > 16 µg/mL

## N=C(S)NC[C@H]1CN(c2ccc(-n3nnc4ccccc43)c(F)c2)C(=O)O1
Escherichia coli [1]
  MIC: > 16 µg/mL
Pseudomonas aeruginosa [2]
  MIC: > 16 µg/mL
Enterococcus faecalis [3]
  MIC: 0.25 µg/mL (≈ 0.647 µM)
[4]
  MIC: 0.125 µg/mL (≈ 0.323 µM)
Bacillus pumilus [5]
  MIC: 0.25 µg/mL (≈ 0.647 µM)
Staphylococcus aureus [6]
  MIC: 0.25 µg/mL (≈ 0.647 µM)
Enterococcus faecalis [7]
  MIC: 0.25 µg/mL (≈ 0.647 µM)
[8]
  MIC: > 16 µg/mL
[9]
  MIC: 0.25 µg/mL (≈ 0.647 µM)
Staphylococcus aureus [10]
  MIC: 0.25 µg/mL (≈ 0.647 µM)
Enterococcus faecium [11]
  MIC: 16 µg/mL (≈ 41.4 µM)

## CN(C)CCO/C(S)=N/C[C@H]1CN(c2ccc(-n3nnc4ccccc43)c(F)c2)C(=O)O1
[12]
  MIC: > 16 µg/mL
Escherichia coli [1]
  MIC: > 16 µg/mL
Pseudomonas aeruginosa [2]
  MIC: > 16 µg/mL
Enterococcus faecalis [3]
  MIC: > 16 µg/mL
[4]
  MIC: > 16 µg/mL
Bacillus pumilus [5]
  MIC: > 16 µg/mL
Staphylococcus aureus [6]
  MIC: > 16 µg/mL
Enterococcus faecalis [7]
  MIC: > 16 µg/mL
[8]
  MIC: > 16 µg/mL
[9]
  MIC: > 16 µg/mL
Staphylococcus aureus [10]
  MIC: > 16 µg/mL
Enterococcus faecium [11]
  MIC: > 16 µg/mL

## O=C1O[C@@H](C/N=C(\S)OCC(F)(F)C(F)F)CN1c1ccc(-n2nnc3ccccc32)c(F)c1
Enterococcus faecalis [13]
  MIC: inactive
[14]
  MIC: inactive
Escherichia coli [1]
  MIC: inactive
[15]
  MIC: inactive
Enterococcus faecium [16]
  MIC: inactive
[17]
  MIC: inactive
Staphylococcus aureus [18]
  MIC: inactive
Staphylococcus aureus [19]
  MIC: inactive
Bacillus pumilus [20]
  MIC: inactive
[21]
  MIC: inactive
Enterococcus faecalis [22]
  MIC: inactive
Pseudomonas aeruginosa [23]
  MIC: inactive

## O=C1O[C@@H](C/N=C(\S)OCC(F)(F)F)CN1c1ccc(-n2nnc3ccccc32)c(F)c1
Enterococcus faecalis [13]
  MIC: inactive
Escherichia coli [24]
  MIC: inactive
[14]
  MIC: inactive
[15]
  MIC: inactive
Enterococcus faecium [16]
  MIC: inactive
[17]
  MIC: inactive
Staphylococcus aureus [18]
  MIC: inactive
Staphylococcus aureus [19]
  MIC: inactive
Bacillus pumilus [20]
  MIC: inactive
[21]
  MIC: inactive
Enterococcus faecalis [22]
  MIC: inactive
Pseudomonas aeruginosa [23]
  MIC: inactive

## CC(=O)NC[C@H]1CN(c2ccc(N3CCOCC3)c(F)c2)C(=O)O1 [LINEZOLID]
[12]
  MIC: > 16 µg/mL
Escherichia coli [1]
  MIC: > 16 µg/mL
Pseudomonas aeruginosa [2]
  MIC: > 16 µg/mL
[4]
  MIC: 2 µg/mL (≈ 5.93 µM)
[8]
  MIC: > 16 µg/mL
[9]
  MIC: 2 µg/mL (≈ 5.93 µM)
Enterococcus faecium [11]
  MIC: 2 µg/mL (≈ 5.93 µM)

## COC(=O)c1ccc2c(c1)nnn2-c1ccc(N2C[C@H](C/N=C(\S)OC)OC2=O)cc1F
[12]
  MIC: 0.25 µg/mL (≈ 0.544 µM)
Escherichia coli [1]
  MIC: > 16 µg/mL
Pseudomonas aeruginosa [2]
  MIC: > 16 µg/mL
Enterococcus faecalis [3]
  MIC: 0.125 µg/mL (≈ 0.272 µM)
[4]
  MIC: 0.125 µg/mL (≈ 0.272 µM)
Staphylococcus aureus [6]
  MIC: 0.25 µg/mL (≈ 0.544 µM)
Enterococcus faecalis [7]
  MIC: 0.25 µg/mL (≈ 0.544 µM)
[9]
  MIC: 0.25 µg/mL (≈ 0.544 µM)
Staphylococcus aureus [10]
  MIC: 0.25 µg/mL (≈ 0.544 µM)
Enterococcus faecium [11]
  MIC: 0.25 µg/mL (≈ 0.544 µM)

## COC(=O)c1ccc2c(c1)nnn2-c1ccc(N2C[C@H](C/N=C(/N)S)OC2=O)cc1F
Staphylococcus aureus [25]
  MIC: 0.25 µg/mL (≈ 0.562 µM)
[12]
  MIC: 0.25 µg/mL (≈ 0.562 µM)
Escherichia coli [1]
  MIC: > 16 µg/mL
Pseudomonas aeruginosa [2]
  MIC: > 16 µg/mL
Enterococcus faecalis [3]
  MIC: 0.125 µg/mL (≈ 0.281 µM)
[4]
  MIC: 0.125 µg/mL (≈ 0.281 µM)
Staphylococcus aureus [6]
  MIC: 0.25 µg/mL (≈ 0.562 µM)
Enterococcus faecium [11]
  MIC: 0.25 µg/mL (≈ 0.562 µM)
[26]
  MIC: 0.25 µg/mL (≈ 0.562 µM)
Enterococcus faecalis [27]
  MIC: 0.25 µg/mL (≈ 0.562 µM)

## O=C1O[C@@H](C/N=C(\S)OCCO)CN1c1ccc(-n2nnc3ccccc32)c(F)c1
Escherichia coli [1]
  MIC: > 16 µg/mL
Pseudomonas aeruginosa [2]
  MIC: > 16 µg/mL
Enterococcus faecalis [3]
  MIC: > 16 µg/mL
[4]
  MIC: > 16 µg/mL
Bacillus pumilus [5]
  MIC: > 16 µg/mL
Staphylococcus aureus [6]
  MIC: > 16 µg/mL
Enterococcus faecalis [7]
  MIC: > 16 µg/mL
[8]
  MIC: > 16 µg/mL
[9]
  MIC: > 16 µg/mL
Staphylococcus aureus [10]
  MIC: > 16 µg/mL
Enterococcus faecium [11]
  MIC: > 16 µg/mL

## O=C1O[C@@H](CN/C(S)=N/CCCO)CN1c1ccc(-n2nnc3ccccc32)c(F)c1
Enterococcus faecalis [13]
  MIC: inactive
Escherichia coli [24]
  MIC: inactive
[14]
  MIC: inactive
[15]
  MIC: inactive
Enterococcus faecium [16]
  MIC: inactive
[17]
  MIC: inactive
Staphylococcus aureus [18]
  MIC: inactive
Staphylococcus aureus [19]
  MIC: inactive
Bacillus pumilus [20]
  MIC: inactive
[21]
  MIC: inactive
Enterococcus faecalis [22]
  MIC: inactive
Pseudomonas aeruginosa [23]
  MIC: inactive

## O=C1O[C@@H](CN/C(S)=N/CCO)CN1c1ccc(-n2nnc3ccccc32)c(F)c1
Escherichia coli [1]
  MIC: > 16 µg/mL
Staphylococcus aureus [28]
  MIC: 4 µg/mL (≈ 9.29 µM)
Pseudomonas aeruginosa [2]
  MIC: > 16 µg/mL
Enterococcus faecalis [3]
  MIC: 1 µg/mL (≈ 2.32 µM)
[4]
  MIC: 0.5 µg/mL (≈ 1.16 µM)
Enterococcus faecalis [7]
  MIC: 1 µg/mL (≈ 2.32 µM)
[8]
  MIC: > 16 µg/mL
[9]
  MIC: 2 µg/mL (≈ 4.65 µM)
Staphylococcus aureus [10]
  MIC: 2 µg/mL (≈ 4.65 µM)
Enterococcus faecium [11]
  MIC: 1 µg/mL (≈ 2.32 µM)
